This passage reports IC50 results from ChEMBL document CHEMBL1146472, “Cytotoxic cyclotides from Viola tricolor” (J Nat Prod, 2004).

pIC50: −log10 of the molar value. Where a SMILES comes first, the peptide text is derived from it. Bridges are numbered along the chain shown (N, C = ends).

Test [1] relates to U-937/GTB. The experiment in a line: Cytotoxicity against human U937/GTB cells after 72 hrs by trypan blue exclusion method. Format: functional, cell-based.
The subject of test [2] is RPMI-8226. The experiment in a line: Cytotoxicity against human RPMI8226/S cells after 72 hrs by trypan blue exclusion method. In kind it is functional, cell-based.

Take `COc1cccc2c1C(=O)c1c(O)c3c(c(O)c1C2=O)C[C@@](O)(C(=O)CO)C[C@@H]3O[C@H]1C[C@H](N)[C@H](O)[C@H](C)O1` [DOXORUBICIN]: the pIC50 in test [1] (Homo sapiens, U-937/GTB, 72 h) is 7.00; in test [2] (Homo sapiens, RPMI8226/S, 72 h), 7.00.
In the case of `CC[C@H](C)[C@@H]1NC(=O)[C@H](C)NC(=O)[C@H](CO)NC(=O)[C@H]([C@@H](C)O)NC(=O)[C@H]([C@@H](C)CC)NC(=O)[C@@H]2CSSC[C@@H]3NC(=O)[C@H](C(C)C)NC(=O)[C@H](CCCCN)NC(=O)[C@H](CO)NC(=O)[C@H](CCCCN)NC(=O)[C@H](CSSC[C@H](NC(=O)[C@H](CO)NC(=O)[C@H](CCC(=O)O)NC(=O)CN)C(=O)N[C@@H](C(C)C)C(=O)N[C@@H](Cc4c[nH]c5ccccc45)C(=O)N[C@@H]([C@@H](C)CC)C(=O)N4CCC[C@H]4C(=O)N2)NC(=O)[C@H](CO)NC(=O)[C@H](CSSC[C@@H](C(=O)O)NC(=O)[C@@H]2CCCN2C(=O)[C@H]([C@@H](C)CC)NC(=O)CNC(=O)[C@H](CC(N)=O)NC(=O)[C@H](CCCNC(=N)N)NC(=O)[C@H](Cc2ccc(O)cc2)NC3=O)NC(=O)CNC1=O` [VITRI A] (H-GESCVWIPCITSAIGCSCKSKVCYRNGIPC-OH; disulfide 4-18, 9-23, 16-30), the negative-log IC50 (pIC50) was 6.22 in test [1] (Homo sapiens, U-937/GTB, 72 h) and 6.00 in test [2] (Homo sapiens, RPMI8226/S, 72 h).
In the case of `CC[C@H](C)[C@@H]1NC(=O)[C@H](C)NC(=O)[C@H](CO)NC(=O)[C@H](CO)NC(=O)[C@H]([C@@H](C)CC)NC(=O)[C@@H]2CSSC[C@@H]3NC(=O)[C@H](C(C)C)NC(=O)[C@H](CCCCN)NC(=O)[C@H](CO)NC(=O)[C@H](CCCCN)NC(=O)[C@H](CSSC[C@H](NC(=O)[C@H](CO)NC(=O)[C@H](CCC(=O)O)NC(=O)CN)C(=O)N[C@@H](C(C)C)C(=O)N[C@@H](Cc4c[nH]c5ccccc45)C(=O)N[C@@H]([C@@H](C)CC)C(=O)N4CCC[C@H]4C(=O)N2)NC(=O)[C@H](CO)NC(=O)[C@H](CSSC[C@@H](C(=O)O)NC(=O)[C@@H]2CCCN2C(=O)[C@H]([C@@H](C)CC)NC(=O)CNC(=O)[C@H](CC(N)=O)NC(=O)[C@H](CCCNC(=N)N)NC(=O)[C@H](Cc2ccc(O)cc2)NC3=O)NC(=O)CNC1=O` [CYCLOVIOLACIN O2] (H-GESCVWIPCISSAIGCSCKSKVCYRNGIPC-OH; disulfide 4-18, 9-23, 16-30), the pIC50 in test [1] (Homo sapiens, U-937/GTB, 72 h) is 6.52; in test [2] (Homo sapiens, RPMI8226/S, 72 h) it was 7.00.
Regarding `CC[C@H](C)[C@@H]1NC(=O)[C@@H]2CCCN2C(=O)[C@H](CC(C)C)NC(=O)CNC(=O)[C@H](CC(N)=O)NC(=O)[C@H](CCCNC(=N)N)NC(=O)[C@H]([C@@H](C)O)NC(=O)[C@@H]2CSSC[C@@H]3NC(=O)[C@H]([C@@H](C)O)NC(=O)CNC(=O)CNC(=O)[C@H](C(C)C)NC(=O)[C@@H](NC(=O)[C@@H](NC(=O)[C@H](CCC(=O)O)NC(=O)CN)[C@@H](C)O)CSSC[C@H](NC(=O)[C@H](CO)NC(=O)[C@H](CSSC[C@@H](C(=O)O)NC1=O)NC(=O)CNC(=O)[C@@H]1CCCN1C(=O)[C@H]([C@@H](C)O)NC(=O)[C@H](CC(N)=O)NC3=O)C(=O)N[C@@H](CO)C(=O)N[C@@H](Cc1c[nH]c3ccccc13)C(=O)N1CCC[C@H]1C(=O)N[C@@H](C(C)C)C(=O)N2` (stereo in doubt; form 2), the pIC50 is 5.15 in test [1] (u-937/gtb) and 5.22 in test [2] (rpmi8226/s).
For the molecule `CC[C@H](C)[C@@H]1NC(=O)[C@@H]2CCCN2C(=O)[C@H](CC(C)C)NC(=O)CNC(=O)[C@H](CC(N)=O)NC(=O)[C@H](CCCNC(=N)N)NC(=O)[C@H]([C@@H](C)O)NC(=O)[C@@H]2CSSC[C@@H]3NC(=O)[C@H]([C@@H](C)O)NC(=O)CNC(=O)CNC(=O)[C@H](C(C)C)NC(=O)[C@@H](NC(=O)[C@@H](NC(=O)[C@H](CCC(=O)O)NC(=O)CN)[C@@H](C)O)CSSC[C@H](NC(=O)[C@H](CO)NC(=O)[C@H](CSSC[C@@H](C(=O)O)NC1=O)NC(=O)CNC(=O)[C@@H]1CCCN1C(=O)[C@H]([C@@H](C)O)NC(=O)[C@H](CC(N)=O)NC3=O)C(=O)N[C@@H](CO)C(=O)N[C@@H](Cc1c[nH]c3ccccc13)C(=O)N1CCC[C@H]1C(=O)N[C@@H](C(C)C)C(=O)N2` (stereo in doubt; form 1), the pIC50 in test [1] (Homo sapiens, U-937/GTB, 72 h) was 5.40; in test [2] (Homo sapiens, RPMI8226/S, 72 h), 5.40.
Take `CC(C)C[C@@H]1NC(=O)CNC(=O)[C@H](CC(N)=O)NC(=O)[C@H](CCCNC(=N)N)NC(=O)[C@H]([C@@H](C)O)NC(=O)[C@@H]2CSSC[C@@H]3NC(=O)[C@H]([C@@H](C)O)NC(=O)CNC(=O)CNC(=O)[C@H](C(C)C)NC(=O)[C@@H](NC(=O)[C@@H](NC(=O)[C@H](CCC(=O)O)NC(=O)CN)[C@@H](C)O)CSSC[C@H](NC(=O)[C@H](CO)NC(=O)[C@H](CSSC[C@@H](C(=O)O)NC(=O)[C@H](C(C)C)NC(=O)[C@@H]4CCCN4C1=O)NC(=O)CNC(=O)[C@@H]1CCCN1C(=O)[C@H]([C@@H](C)O)NC(=O)[C@H](CC(N)=O)NC3=O)C(=O)N[C@@H](CO)C(=O)N[C@@H](Cc1c[nH]c3ccccc13)C(=O)N1CCC[C@H]1C(=O)N[C@@H](C(C)C)C(=O)N2`: the pIC50 in test [1] (Homo sapiens, U-937/GTB, 72 h) is 5.22; in test [2] (Homo sapiens, RPMI8226/S, 72 h), 5.52.
